# Laboratory results reported in paper PMC10397409, “The action of physiological and synthetic steroids on the calcium channel CatSper in human sperm” (Frontiers in Cell and Developmental Biology, 2023).
# Read-outs that look alike come from different tables or passages of the source.
# What was measured:
# [1] = ref Löfgren and Bäckström (1990), cited from earlier work
# [2] = tested on: human sperm; experiment: Sperm penetration in viscous media (modified Kremer test); assay type: cell-based; conditions: steroids 10 µM, P4 5 µM, 1 h, 1% methylcellulose
# Description: The ability of sperm to penetrate in viscous media similar in viscosity to that found in the female reproductive tract was assessed using the modified Kremer test, as previously described ([Rahban et al., 2021]). Briefly, swim-up recovered and capacitated sperm cells at 3 x 10^6/mL were incubated in the absence (DMSO) or presence of steroids (10 µM), or P4 (5 µM) as a positive control for 1 h at 37°C. A glass capillary (0.2 × 4.0 × 50 mm, CM scientific, UK) was filled with 1% (w/v) methylcellulose (MC, 4000 centipoises cP) prepared with HTF media supplemented with 3 mg/mL HSA, respective compounds (10 µM), P4 (5 µM), or DMSO. The glass capillary tube was then sealed on one end with wax (Vitrex, UK) and added to the sperm cells on the open end. Sperm penetration was assessed after 1 h of incubation at 37°C by counting sperm at 1 cm using a microscope with a ×10 objective.
Compound,Maximum serum level ([1]; female),Maximum serum level ([1]; male),number of sperm penetrating viscous medium at 1 cm [2]
CC(=O)[C@H]1CC[C@H]2[C@@H]3CCC4=CC(=O)CC[C@]4(C)[C@H]3CC[C@]12C [Progesterone],60 nM (female),3 nM (male),
C[C@]12Cc3c[nH]nc3C[C@@H]1CC[C@@H]1[C@@H]2CC[C@@]2(C)[C@H]1CC[C@]2(C)O [Stanozolol],,,significant increase in cell number
